{"source": "patent US4324728A", "about": "“Compound nanaomycin A and derivatives thereof and a process for producing the same” (The Kitasato Institute, priority 1976, dated 1982)", "key": {"[1]": {"test_system": "Staphylococcus aureus FDA 209P", "experiment": "Minimal inhibitory concentration (agar)", "type": "cell-based", "conditions": "FDA209P, 48 h, nutrient agar, pH 7.0, 2 days, 37° C."}, "[2]": {"test_system": "Bacillus subtilis PCI 219", "experiment": "Minimal inhibitory concentration (agar)", "type": "cell-based", "conditions": "Bacillus subtilis, PCI219, 48 h, pH 7, nutrient agar, pH 7.0, 2 days, 37° C.; read-out: MIC", "method": "(§1) Medium N nutrient agar (pH 7.0, 2 days, 37° C.)\n(§2) MIC Minimal inhibitory concentration\n(§3) N nutrient agar (pH 7.0, 2 days, 37° C.)"}, "[3]": {"test_system": "Escherichia coli NIHJ (JC-2)", "experiment": "Minimal inhibitory concentration (agar)", "type": "cell-based", "conditions": "48 h, pH 7, nutrient agar, pH 7.0, 2 days, 37° C.", "method": "as §1, §2, §3"}, "[4]": {"test_system": "Pseudomonas aeruginosa", "experiment": "Minimal inhibitory concentration (agar)", "type": "cell-based", "conditions": "48 h, nutrient agar, pH 7.0, 2 days, 37° C.", "method": "as §1, §2, §3"}, "[5]": {"test_system": "Sarcina lutea PCI 1001", "experiment": "Minimal inhibitory concentration (agar)", "type": "cell-based", "conditions": "Micrococcus luteus, PCI1001, 48 h, pH 7, nutrient agar, pH 7.0, 2 days, 37° C.; read-out: MIC", "method": "as §1, §2, §3"}, "[6]": {"test_system": "Shigella flexneri", "experiment": "Minimal inhibitory concentration (agar)", "type": "cell-based", "conditions": "48 h, nutrient agar, pH 7.0, 2 days, 37° C.", "method": "as §1, §2, §3"}, "[7]": {"test_system": "Staphylococcus aureus FDA 209P (JC-1)", "experiment": "Minimal inhibitory concentration (agar)", "type": "cell-based", "conditions": "FDA209P, 48 h, nutrient agar, pH 7.0, 2 days, 37° C.", "method": "as §1, §2, §3"}, "[8]": {"test_system": "Escherichia coli NIHJ", "experiment": "Minimal inhibitory concentration (agar)", "type": "cell-based", "conditions": "48 h, nutrient agar, pH 7.0, 2 days, 37° C."}, "[9]": {"test_system": "Klebsiella pneumoniae PCI 602", "experiment": "Minimal inhibitory concentration (agar)", "type": "cell-based", "conditions": "PCI602, 48 h, nutrient agar, pH 7.0, 2 days, 37° C."}, "[10]": {"test_system": "Salmonella typhimurium", "experiment": "Minimal inhibitory concentration (agar)", "type": "cell-based", "conditions": "Salmonella enterica, 48 h, nutrient agar, pH 7.0, 2 days, 37° C."}, "[11]": {"test_system": "Candida albicans", "experiment": "Minimal inhibitory concentration (agar)", "type": "cell-based", "conditions": "Candida albicans, 96 h, pH 6.4, potato agar, pH 6.4, 4 days, 27° C.; read-out: MIC", "method": "(§4) P potato agar (pH 6.4, 4 days, 27° C.)\nas §2\n(§5) Minimal inhibitory concentration was assayed by agar dilution method\n(§6) (potato agar, pH 6.4, 27° C., 4 days)."}, "[12]": {"test_system": "Saccharomyces sake", "experiment": "Minimal inhibitory concentration (agar)", "type": "cell-based", "conditions": "Saccharomyces, 96 h; potato agar, pH 6.4, 4 days, 27° C.; read-out: MIC"}, "[13]": {"test_system": "Trichophyton interdigitale", "experiment": "Minimal inhibitory concentration (agar)", "type": "cell-based", "conditions": "Trichophyton interdigitale, 96 h; potato agar, pH 6.4, 4 days, 27° C.; read-out: MIC"}, "[14]": {"test_system": "Mycoplasma gallisepticum 333P (Spiramycin resistant)", "experiment": "Minimal inhibitory concentration (PPLO agar)", "type": "cell-based", "conditions": "Mycoplasmoides gallisepticum, 192 h, pH 7.8", "method": "(§7) H Hokken PPLO agar (pH 7.8, 8 days, 37° C.)\n(§8) E Eiken PPLO agar (pH 7.8, 8 days, 37° C.)\nas §2"}, "[15]": {"test_system": "Mycoplasma gallisepticum KP-13", "experiment": "Minimal inhibitory concentration (PPLO agar)", "type": "cell-based", "conditions": "Mycoplasmoides gallisepticum, KP13, 192 h; Eiken PPLO agar, pH 7.8, 8 days, 37° C.; read-out: MIC", "method": "as §7, §8, §2"}, "[16]": {"test_system": "Mycoplasma gallisepticum S-6", "experiment": "Minimal inhibitory concentration (PPLO agar)", "type": "cell-based", "conditions": "Mycoplasmoides gallisepticum, S6, 192 h; Eiken PPLO agar, pH 7.8, 8 days, 37° C.; read-out: MIC", "method": "as §7, §8, §2"}, "[17]": {"test_system": "Mycoplasma gallinarum", "experiment": "Minimal inhibitory concentration (PPLO agar)", "type": "cell-based", "conditions": "Mycoplasmopsis gallinarum, 192 h, Eiken PPLO agar, pH 7.8, 8 days, 37° C.", "method": "as §7, §2, §8"}, "[18]": {"test_system": "Mycoplasma iners", "experiment": "Minimal inhibitory concentration (PPLO agar)", "type": "cell-based", "conditions": "Mycoplasmopsis iners, 192 h; Eiken PPLO agar, pH 7.8, 8 days, 37° C.", "method": "as §7, §2, §8"}, "[19]": {"test_system": "Mycoplasma pneumoniae", "experiment": "Minimal inhibitory concentration (PPLO agar)", "type": "cell-based", "conditions": "192 h, Eiken PPLO agar, pH 7.8, 8 days, 37° C."}, "[20]": {"test_system": "Mycobacterium smegmatis ATCC 607", "experiment": "Minimal inhibitory concentration (agar)", "type": "cell-based", "conditions": "Mycolicibacterium smegmatis, ATCC607, 48 h; nutrient agar, pH 7.0, 2 days, 37° C."}, "[21]": {"test_system": "Aspergillus niger", "experiment": "Minimal inhibitory concentration (agar)", "type": "cell-based", "conditions": "Aspergillus niger, 96 h; potato agar, pH 6.4, 4 days, 27° C.; read-out: MIC", "method": "as §5, §6, §4"}, "[22]": {"test_system": "Sclerotinia cinerea", "experiment": "Minimal inhibitory concentration (agar)", "type": "cell-based", "conditions": "96 h, potato agar, pH 6.4, 4 days, 27° C.", "method": "| P potato agar (pH 6.4, 4 days, 27° C.)"}, "[23]": {"test_system": "Gram-positive bacteria", "experiment": "Antibacterial activity (in words)", "type": "cell-based"}, "[24]": {"test_system": "mycoplasmas", "experiment": "Antimycoplasma activity (in words)", "type": "cell-based"}, "[25]": {"test_system": "fungi", "experiment": "Antifungal activity (in words)", "type": "cell-based"}, "[26]": {"test_system": "mycoplasma, Gram-positive bacteria and tricophyton", "experiment": "Antimicrobial activity (in words)", "type": "cell-based"}, "[27]": {"test_system": "parasite of the genus Tricophyton", "experiment": "Therapeutic effect on infectious diseases in guinea pigs and cattle", "type": "in vivo", "method": "When dermatomycosis of cattle caused by mass infection of Trichophyton verrucosum is treated with nanaomycin A, nanaomycin A is dissolved or suspended in a suitable carrier, for example, olive oil, and is coated on the affected part directly with or without removal of the scales. […] The results obtained by once-coating of nanaomycin A and by twice-coating (the second coating is carried out a week after the first coating) are shown in Tables 2 and 3, respectively."}, "[28]": {"experiment": "Solubility", "type": "physicochemical"}}}
{"smiles": "CC1OC(CC(N)=O)CC2=C1C(=O)c1c(O)cccc1C2=O", "note": "(stereo not drawn) [Nanaomycin C, nanaomycin C]", "values": [{"measurement": "MIC", "setting": "[1]", "value": 6.3, "unit": "µg/mL"}, {"measurement": "MIC", "setting": "[2]", "value": 6.3, "unit": "µg/mL"}, {"measurement": "MIC", "setting": "[3]", "value": "> 100", "unit": "µg/mL"}, {"measurement": "MIC", "setting": "[4]", "value": "> 100", "unit": "µg/mL"}, {"measurement": "MIC", "setting": "[5]", "value": 25, "unit": "µg/mL"}, {"measurement": "MIC", "setting": "[6]", "value": "> 100", "unit": "µg/mL"}, {"measurement": "MIC", "setting": "[7]", "value": 3.1, "unit": "µg/mL"}, {"measurement": "MIC", "setting": "[8]", "value": 100, "unit": "µg/mL"}, {"measurement": "MIC", "setting": "[9]", "value": "> 100", "unit": "µg/mL"}, {"measurement": "MIC", "setting": "[10]", "value": "> 100", "unit": "µg/mL"}, {"measurement": "MIC", "setting": "[11]", "value": "> 100", "unit": "µg/mL"}, {"measurement": "MIC", "setting": "[12]", "value": "> 100", "unit": "µg/mL"}, {"measurement": "MIC", "setting": "[13]", "value": 100, "unit": "µg/mL"}, {"measurement": "MIC", "setting": "[14]", "value": 3.1, "unit": "µg/mL"}, {"measurement": "MIC", "setting": "[15]", "value": 12.5, "unit": "µg/mL"}, {"measurement": "MIC", "setting": "[16]", "value": 6.3, "unit": "µg/mL"}, {"measurement": "MIC", "setting": "[17]", "value": 12.5, "unit": "µg/mL"}, {"measurement": "MIC", "setting": "[18]", "value": 50, "unit": "µg/mL"}, {"measurement": "MIC", "setting": "[19]", "value": 6.3, "unit": "µg/mL"}, {"measurement": "MIC", "setting": "[20]", "value": 50, "unit": "µg/mL"}, {"measurement": "MIC", "setting": "[21]", "value": "> 100", "unit": "µg/mL"}, {"measurement": "MIC", "setting": "[22]", "value": 100, "unit": "µg/mL"}, {"measurement": "activity against Gram-positive bacteria", "setting": "[23]", "value": "as strong activity against Gram-positive bacteria as nanaomycin A"}, {"measurement": "activity against mycoplasma(s)", "setting": "[24]", "value": "a weaker activity against fungi and mycoplasmas than nanaomycin A"}, {"measurement": "activity against fungi", "setting": "[25]", "value": "a weaker activity against fungi and mycoplasmas than nanaomycin A"}, {"measurement": "antimicrobial activity", "setting": "[26]", "value": "inhibits mainly Gram-positive bacteria and mycoplasmas"}, {"measurement": "therapeutic effect on Trichophyton infectious diseases", "setting": "[27]", "value": "poor therapeutic effect"}, {"measurement": "Solubility in methanol, ethanol, ethylacetate, chloroform and acetone", "setting": "[28]; methanol, ethanol, ethylacetate, chloroform, acetone", "value": "Soluble"}, {"measurement": "Solubility in n-hexane and petroleum ether", "setting": "[28]; n-hexane, petroleum ether", "value": "Insoluble"}, {"measurement": "Solubility in water", "setting": "[28]; water", "value": "Insoluble"}]}
